How the values were obtained:
[1] = target: T1, trypanothione reductase (TR) (Leishmania infantum, UniProt A4HSF7); assay: X-ray crystal structure ([…] Å); format: binding
T1 construct: gene TRYR

[2] = target: T1, trypanothione reductase (TR); assay: X-ray crystal structure ([…] Å, soaked oxidized TR); Ki from Dixon plot of the purified enzyme (NADPH oxidation at […] nm); format: biochemical

T1 sequence (A4HSF7 1-491): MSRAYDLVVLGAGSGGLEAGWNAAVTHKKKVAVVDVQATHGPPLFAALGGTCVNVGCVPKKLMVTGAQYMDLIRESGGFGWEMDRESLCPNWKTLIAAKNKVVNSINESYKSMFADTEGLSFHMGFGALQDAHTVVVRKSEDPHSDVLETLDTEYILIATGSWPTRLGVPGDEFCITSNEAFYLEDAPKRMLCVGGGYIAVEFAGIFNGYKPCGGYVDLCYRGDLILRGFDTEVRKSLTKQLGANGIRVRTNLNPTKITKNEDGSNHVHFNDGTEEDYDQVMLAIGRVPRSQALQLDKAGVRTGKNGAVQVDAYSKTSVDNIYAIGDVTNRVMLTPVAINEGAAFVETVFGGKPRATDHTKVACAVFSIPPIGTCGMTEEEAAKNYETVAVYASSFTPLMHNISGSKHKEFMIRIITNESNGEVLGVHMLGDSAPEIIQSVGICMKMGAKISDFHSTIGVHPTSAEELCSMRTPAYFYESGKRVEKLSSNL

Row | Structure (SMILES) | X-ray crystal structure (3.5 Å) [1] | Ki [2] [nM]
1 | Cc1cc2nc3c(=O)[nH]c(=O)nc-3n(C[C@H](O)[C@H](O)[C@H](O)COP(=O)(O)OP(=O)(O)OC[C@H]3O[C@@H](n4cnc5c(N)ncnc54)[C@H](O)[C@@H]3O)c2cc1C [FAD] | Each monomer contains a FAD molecule. | 
2 | CCC(C)Oc1cc(N)nc(Sc2cccc(Cl)c2)n1 (centres unmarked) [RDS 777, 6-(sec-butoxy)-2-((3-chlorophenyl)thio)pyrimidin-4-amine] |  | 250 ± 180
